Test results: US9795140B2, “Molecules having pesticidal utility, and intermediates, compositions, and processes, related thereto” (priority 2015, dated 2017)

What was measured:
Type in all cases: in vivo
[1] = tested on: Yellow Fever Mosquito (Aedes aegypti, AEDSAE); assay: Bioassay on Yellow Fever Mosquito (YFM) larvae, 96-well plate; conditions: about 1 day-old larvae, room temperature, 3 days, scored on mortality
Outline: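 Each well was scored for mortality after 3 days at room temperature under a non-evaporative lid. Test molecules came from DMSO masters (4000 ppm stock) diluted with water/acetone 90:10 and dispensed into six replicate plates, which were then infested with roughly 1-day-old larvae in liver-powder water.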

[2] = tested on: Green Peach Aphid (Myzus persicae, MYZUPE); assay: Bioassay on Green Peach Aphid (GPA), foliar spray on cabbage seedlings; conditions: 72 h, 200 ppm spray on infested cabbage seedlings, three days, Abbott corrected % control, read-out: GPA % Control (or Mortality) rating
Procedure: Certain molecules disclosed in this document were tested against GPA using procedures described in the following example. In the reporting of the results, the “GPA & YFM Rating Table” was used (See Table Section).
Cabbage seedlings grown in 3-inch pots, with 2-3 small (3-5 cm) true leaves, were used as test substrate. The seedlings were infested with 20-50 GPA (wingless adult and nymph stages) one day prior to chemical application. Four pots with individual seedlings were used for each treatment. Test molecules (2 mg) were dissolved in 2 mL of acetone/methanol (1:1) solvent, forming stock solutions of 1000 ppm test molecule. The stock solutions were diluted 5× with 0.025% Tween 20 in water to obtain the solution at 200 ppm test molecule. A hand-held aspirator-type sprayer was used for spraying a solution to both sides of […] leaves until runoff. Reference plants (solvent check) were sprayed with the diluent only containing 20% by volume of acetone/methanol (1:1) solvent. Treated plants were held in a holding room for three days at approximately 25° C. and ambient relative humidity (RH) prior to grading. Evaluation was conducted by counting the number of live aphids per plant under a microscope. Percent control was measured using Abbott's correction formula (W. S. Abbott, “A Method of Computing the Effectiveness of an Insecticide” J. Econ. Entomol. 18 (1925), pp. 265-267) as follows. Corrected % Control=100*(X−Y)/X where X=No. of live aphids on solvent check plants and Y=No. of live aphids on treated plants. The results are indicated in the table entitled “Table ABC: Biological Results” (See Table Section).

[3] = tested on: Cabbage Looper (Trichoplusia ni, TRIPNI); assay: Bioassay on Cabbage Looper (CL), 128-well diet tray assay; conditions: 168 h, 50 μg/cm^2 on artificial diet, second instar larvae, 25° C., five to seven days, average of eight wells, read-out: CL % Control (or Mortality) rating
Outline: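 Percent larval mortality, averaged across eight replicate wells, was scored after 5–7 days at 25 °C with a 14:10 photoperiod. Each well held 1 mL diet surface-treated at 50 μg/cm^2 with test molecule from a 90:10 acetone-water solution, then dried. Wells were infested with one to five second-instar cabbage loopers.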

[4] = tested on: Beet Armyworm (Spodoptera exigua, LAPHEG); assay: Bioassay on Beet Armyworm (BAW), 128-well diet tray assay; conditions: 168 h, 50 μg/cm^2 on artificial diet, second instar larvae, 25° C., five to seven days, average of eight wells, read-out: BAW % Control (or Mortality) rating
Outline: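 Diet tray, 8 wells/compound; 50 μg/cm^2 applied to diet surface (90:10 acetone-water), dried. 1–5 L2 larvae/well; 25° C., 14:10 L:D, 5–7 d. Read-out: % mortality, mean of 8 wells.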

Compound	YFM % Control (or Mortality) rating [1]	mortality at 200 ppm [2] [%]	mortality at 50 µg/cm2 [3] [%]	mortality at 50 µg/cm2 [4] [%]
O=C(NCc1ccncc1)c1cc(NC(=O)[C@H]2[C@H](c3cc(Cl)cc(Cl)c3)C2(Cl)Cl)ccc1Cl (relative stereo) [F12, trans-2-Chloro-5-(2,2-dichloro-3-(3,5-dichlorophenyl)cyclopropane-1-carboxamido)-N-(pyridin-4-ylmethyl)benzamide]	A (80-100)	0 to 80	50 to 100	50 to 100
O=C(NCC(F)(F)F)c1cc(NC(=O)[C@H]2[C@H](c3cc(Cl)cc(Cl)c3)C2(Cl)Cl)ccc1Cl (relative stereo) [F4, trans-2-Chloro-5-(2,2-dichloro-3-(3,5-dichlorophenyl)cyclopropane-1-carboxamido)-N-(2,2,2-trifluoroethyl)benzamide]	A (80-100)	80 to 100	50 to 100	50 to 100
CNC(=O)c1cc(NC(=O)[C@H]2[C@H](c3cc(Cl)cc(Cl)c3)C2(Cl)Cl)ccc1C(F)(F)F (relative stereo) [F2, trans-5-(2,2-Dichloro-3-(3,5-dichlorophenyl)cyclopropane-1-carboxamido)-N-methyl-2-(trifluoromethyl)benzamide]	A (80-100)	0 to 80	50 to 100	50 to 100
CS(=O)(=O)CCNC(=O)c1cc(NC(=O)[C@H]2[C@H](c3cc(Cl)cc(Cl)c3)C2(Cl)Cl)ccc1Cl (relative stereo) [F75, trans-2-chloro-5-(2,2-dichloro-3-(3,5-dichlorophenyl)cyclopropane-1-carboxamido)-N-(2-(methylsulfonyl)ethyl)benzamide]	A (80-100)	80 to 100	50 to 100	50 to 100
O=C(NOCC1CC1(F)F)c1cc(NC(=O)C2C(c3cc(Cl)cc(Cl)c3)C2(Cl)Cl)ccc1Cl (stereo not drawn) [F21, trans-N-2-Chloro-5-(2,2-dichloro-3-(3,5-dichlorophenyl)cyclopropane-1-carboxamido)-N-((2,2-difluorocyclopropyl)methoxy)benzamide]	B (More than 0-Less than 80)	0 to 80	50 to 100	50 to 100
O=C(NCc1ccncc1)c1cc(NC(=O)[C@H]2[C@H](c3cc(Cl)c(Cl)c(Cl)c3)C2(Cl)Cl)ccc1Cl (relative stereo) [F13, trans-2-Chloro-5-(2,2-dichloro-3-(3,4,5-trichlorophenyl)cyclopropane-1-carboxamido)-N-(pyridin-4-ylmethyl)benzamide]	A (80-100)	0 to 80	50 to 100	50 to 100
O=C(NOc1ccccc1)c1cc(NC(=O)[C@H]2[C@H](c3cc(Cl)cc(Cl)c3)C2(Cl)Cl)ccc1Cl (relative stereo) [F29, trans-2-chloro-5-(2,2-dichloro-3-(3,5-dichlorophenyl)cyclopropane-1-carboxamido)-N-phenoxybenzamide]	A (80-100)	0 to 80	0	0
O=C(NCc1ccc(C(F)(F)F)cc1)c1cc(NC(=O)[C@H]2[C@H](c3cc(Cl)cc(Cl)c3)C2(Cl)Cl)ccc1Cl (relative stereo) [F41, trans-2-Chloro-5-(2,2-dichloro-3-(3,5-dichlorophenyl)cyclopropane-1-carboxamido)-N-(4-(trifluoromethyl)benzyl)benzamide]	A (80-100)	0	50 to 100	50 to 100
C[C@H](CS(=O)(=O)CC(F)(F)F)NC(=O)c1cc(NC(=O)C2C(c3cc(Cl)cc(Cl)c3)C2(Cl)Cl)ccc1Cl (stereo in doubt) [PF6, trans-2-Chloro-5-(2,2-dichloro-3-(3,5-dichlorophenyl)cyclopropane-1-carboxamido)-N—((R)-1-((2,2,2-trifluoroethyl)sulfonyl)propan-2-yl)benzamide]	A (80-100)	0 to 80	50 to 100	50 to 100
CCCNC(=O)c1cc(NC(=O)[C@H]2[C@H](c3cc(Cl)cc(Cl)c3)C2(Cl)Cl)ccc1Cl (relative stereo) [F56, trans-2-Chloro-5-(2,2-dichloro-3-(3,5-dichlorophenyl)cyclopropane-1-carboxamido)-N-propylbenzamide]	A (80-100)	80 to 100	50 to 100	50 to 100
CCCCNC(=O)c1cc(NC(=O)[C@H]2[C@H](c3cc(Cl)cc(Cl)c3)C2(Cl)Cl)ccc1Cl (relative stereo) [F45, trans-N-Butyl-2-chloro-5-(2,2-dichloro-3-(3,5-dichlorophenyl)cyclopropane-1-carboxamido)benzamide]	A (80-100)	80 to 100	50 to 100	50 to 100
O=C(NCC(O)C(F)(F)F)c1cc(NC(=O)[C@H]2[C@H](c3cc(Cl)cc(Cl)c3)C2(Cl)Cl)ccc1Cl (relative stereo) [PF16, trans-2-Chloro-5-(2,2-dichloro-3-(3,5-dichlorophenyl)cyclopropane-1-carboxamido)-N-(3,3,3-trifluoro-2-hydroxypropyl)benzamide]	A (80-100)	80 to 100	50 to 100	50 to 100
CCNC(=O)c1cc(NC(=O)[C@H]2[C@H](c3cc(Cl)cc(Cl)c3)C2(Cl)Cl)ccc1Cl (relative stereo) [F46, trans-2-Chloro-5-(2,2-dichloro-3-(3,5-dichlorophenyl)cyclopropane-1-carboxamido)-N-ethylbenzamide]	A (80-100)	80 to 100	50 to 100	50 to 100
O=C(NCCCOCC(F)(F)F)c1cc(NC(=O)[C@H]2[C@H](c3cc(Cl)cc(Cl)c3)C2(Cl)Cl)ccc1Cl (relative stereo) [F39, trans-2-Chloro-5-(2,2-dichloro-3-(3,5-dichlorophenyl)cyclopropane-1-carboxamido)-N-(3-(2,2,2-trifluoroethoxy)propyl)benzamide]	A (80-100)	80 to 100	50 to 100	50 to 100
O=C(NCc1ccccc1)c1cc(NC(=O)[C@H]2[C@H](c3cc(Cl)cc(Cl)c3)C2(Cl)Cl)ccc1Cl (relative stereo) [F27, trans-N-benzyl-2-chloro-5-(2,2-dichloro-3-(3,5-dichlorophenyl)cyclopropane-1-carboxamido)benzamide]	A (80-100)	0 to 80	50 to 100	50 to 100
O=C(NOCc1ccc(F)cc1)c1cc(NC(=O)C2C(c3cc(Cl)c(Cl)c(Cl)c3)C2(Cl)Cl)ccc1Cl (stereo not drawn) [F18, trans-N-2-Chloro-5-(2,2-dichloro-3-(3,4,5-trichlorophenyl)cyclopropane-1-carboxamido)-N-((4-fluorobenzyl)oxy)benzamide]	–	0 to 80	50 to 100	50 to 100
O=C(NCCOCC1CC1)c1cc(NC(=O)[C@H]2[C@H](c3cc(Cl)cc(Cl)c3)C2(Cl)Cl)ccc1Cl (relative stereo) [F43, trans-2-Chloro-N-(2-(cyclopropylmethoxy)ethyl)-5-(2,2-dichloro-3-(3,5-dichlorophenyl)cyclopropane-1-carboxamido)benzamide]	–	80 to 100	50 to 100	50 to 100
CC(NC(=O)c1cc(NC(=O)[C@H]2[C@H](c3cc(Cl)cc(Cl)c3)C2(Cl)Cl)ccc1Cl)c1ccc(F)cc1 (relative stereo) [F96, 2-chloro-5-(trans-2,2-dichloro-3-(3,5-dichlorophenyl)cyclopropane-1-carboxamido)-N-(1-(4-fluorophenyl)ethyl)benzamide]	A (80-100)	–	50 to 100	50 to 100
